Where two headings read alike, the source gives them in different places. Where a SMILES comes first, the peptide text is derived from it. Bridges are numbered along the chain shown (N, C = ends).
Experiments:
[1] = system: intestinal absorption of a phosphate meal from the gastrointestinal tract; experiment: Acute phosphate tracer uptake to plasma after intragastric co-administration of phosphate test meal and compound (Example 5); format: in vivo, rat; conditions: rats, 15 min after intragastric co-administration
Method: (§1) Compounds were tested for the ability to reduce the appearance of circulating radiolabeled phosphate subsequent to administration to the alimentary canal in rats. The rate of radiolabeled phosphate tracer accumulation in the blood of rats was taken as a surrogate for the intestinal absorption rate of a phosphate meal from the gastrointestinal tract. To this end, circulating radiolabeled phosphate was monitored after intragastric co-administration to rats of a phosphate tracer meal along with example compounds. However, since some of the compounds tested potentially had properties that may hinder this assay, such as having putative gastrointestinal motility effects (e.g., delaying gastric emptying) or being purposefully chemically unstable in the gastrointestinal tract, direct intraduodenal administrations of the phosphate tracer bolus was also performed at times.
Male Sprague-Dawley rats that were 8-weeks of age were purchased from Charles River Laboratories (Hollister, Calif.). To enable blood sampling, rats were purchased with catheters surgically implanted in the jugular vein by the vendor. For studies requiring intraduodenal administration, an additional catheter was surgically implanted by the vendor to allow for direct infusion to the lumen of the duodenum. Rats were fed a normal, grain-based chow (Harlan Teklad, Madison, Wis.; 2018 Teklad Global 18% Protein Rodent Diet) containing 0.65% P, 1% Ca, and 1.5 iu/g Vitamin D3 and given water ad libitum leading up to the study.
Following an overnight fast, rats were administered a phosphate solution containing [^33P]orthophosphate (PerkinElmer, Waltham, Mass.) as a tracer with or without test articles dispersed in the solution at the indicated dosage. This dosing solution typically contained 8 mM monobasic sodium phosphate (1.25 μCi [^33P]orthophosphate/μmol), 4 mM calcium chloride, 0.4% hydroxypropyl methocellulose (w/v), and 2% dimethylsulfoxide (w/v). The dosing solutions were prepared in water for intragastric gavage at 10 ml/kg and in saline if administered intraduodenally using a previously implanted catheter at 5 ml/kg as a bolus.
(§2) Blood was sampled from the jugular vein via implanted catheters from conscious rats following dosing and the radioisotope associated with the resulting plasma was determined by scintillation counting. The relative amount of phosphate uptake from the administered dose to the plasma was assessed using body weight estimation of total circulating plasma. See Bijsterbosch et al., Experientia. 37: 381-382, 1981 (The plasma volume of the Wistar rat in relation to the body weight). The comparative amount of phosphate uptake at 15 min post-dose for each group (n=6) was expressed as a percentage relative to the study vehicle group (n=6) as mean±SEM. Statistical comparisons of the means of each test group compared to the mean of the vehicle group were determined by one-way analysis of variance followed by the Dunnett's posthoc test and P<0.05 was accepted as statistically significant (ns, not significant; *, P<0.05; **, P<0.01; and ***, P <0.001).

[2] = system: intestinal absorption of a phosphate meal from the gastrointestinal tract; experiment: Acute phosphate tracer uptake to plasma after intraduodenal co-administration of phosphate test meal and compound (Example 5); format: in vivo, rat; conditions: rats, 15 min after intraduodenal co-administration
Method: as §1
Male Sprague-Dawley rats that were 8-weeks of age were purchased from Charles River Laboratories (Hollister, Calif.). To enable blood sampling, rats were purchased with catheters surgically implanted in the jugular vein by the vendor. For studies requiring intraduodenal administration, an additional catheter was surgically implanted by the vendor to allow for direct infusion to the lumen of the duodenum. […]
as §2, with “See Bijsterbosch et al., Experientia. 37: 381-382, 1981 (The plasma volume of the Wistar rat in relation to the body weight).” left out

[3] = biological target: P2Y2 receptor (Homo sapiens, UniProt P41231); conditions: cited from earlier work; for EC50: agonist potency
[4] = system: phosphate absorption/uptake in the small intestine; experiment: 33P uptake to plasma in rats simultaneously dosed with 33P and test compound (Examples 2-4); format: in vivo, rat; conditions: for uptake of phosphate in the gastrointestinal tract of rats: figure legends FIGS. 1-3
Method: Experiments were performed to determine whether guanylate cyclase C (GC-C) receptor agonists can decrease phosphate absorption/uptake in the small intestine as measured by ^33P uptake. Rats were simultaneously dosed with ^33P and linaclotide as shown below:
Blood was collected at 5, 15, 30, 45, and 60 minutes post-^33P administration and plasma scintillation counting was performed.
Experiments were performed to determine whether other classes of drugs can decrease phosphate absorption/uptake in the small intestine as measured by ^33P uptake. Rats were simultaneously dosed with ^33P and either an imidazoline subtype 1 (I1) receptor agonist (moxonidine) or an adenylate cyclase agonist (the water-soluble forskolin analog NKH477) as shown below:
Experiments were performed to determine whether increasing intracellular calcium (Ca^++) by different mechanisms can also decrease phosphate absorption in the small intestine as measured by ^33P uptake. Rats were simultaneously dosed with ^33P and test compounds as shown below: […]

[5] = Rattus norvegicus, po, 0.25 h, dose 10 mg/kg, read-out: Uptake of phosphate tracer to plasma, % of study vehicle

P2Y2 receptor, sequence (P41231 whole entry): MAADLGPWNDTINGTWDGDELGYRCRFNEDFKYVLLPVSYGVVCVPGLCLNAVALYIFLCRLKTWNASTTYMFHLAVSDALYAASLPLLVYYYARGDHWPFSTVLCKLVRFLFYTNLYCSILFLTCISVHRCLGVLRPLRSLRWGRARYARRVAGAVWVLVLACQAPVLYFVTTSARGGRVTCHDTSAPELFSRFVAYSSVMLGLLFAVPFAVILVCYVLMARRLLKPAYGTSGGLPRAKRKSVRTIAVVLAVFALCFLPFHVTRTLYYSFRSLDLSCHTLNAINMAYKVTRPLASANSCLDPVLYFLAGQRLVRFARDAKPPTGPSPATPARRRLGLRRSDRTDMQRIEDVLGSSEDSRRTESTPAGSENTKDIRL

CC(C[N+](C)(C)C)OC(N)=O (stereo not drawn) [Bethanechol, carbamoyl-β-methlycholine]
response vs control in vivo at 10 mg/kg [1, 5]: > 75%

6-guanyl NECA
Uptake of phosphate tracer to plasma, % of study vehicle ([1]; dose 10 mg/kg): >75%

O=c1[nH]c(=S)ccn1[C@@H]1O[C@H](COP(=O)(O)OP(=O)(O)C(F)(F)P(=O)(O)O)[C@@H](O)[C@H]1O [PSB1114]
Uptake of phosphate tracer to plasma, % of study vehicle ([2]; dose 15 mg/kg): >75%

CC[C@H](C)[C@@H]1NC(=O)[C@H](CCCNC(=N)N)NC(=O)[C@H](CC(=O)O)NC(=O)[C@H](CCSC)NC(=O)[C@H](CCCNC(=N)N)NC(=O)CNC(=O)CNC(=O)[C@H](Cc2ccccc2)NC(=O)[C@@H](NC(=O)[C@H](CO)NC(=O)[C@H](CO)NC(=O)[C@H](CCCNC(=N)N)NC(=O)[C@H](CCCNC(=N)N)NC(=O)[C@H](CC(C)C)NC(=O)[C@@H](N)CO)CSSC[C@@H](C(=O)N[C@@H](CC(N)=O)C(=O)N[C@@H](CO)C(=O)N[C@@H](Cc2ccccc2)C(=O)N[C@@H](CCCNC(=N)N)C(=O)N[C@@H](Cc2ccc(O)cc2)C(=O)O)NC(=O)CNC(=O)[C@H](CC(C)C)NC(=O)CNC(=O)[C@H](CO)NC(=O)[C@H](CCC(N)=O)NC(=O)[C@H](C)NC(=O)CNC1=O [Atrial natriuretic peptide]
Uptake of phosphate tracer to plasma, % of study vehicle ([2]; dose 0.2 mg/kg): >75%

N#Cc1c(N)nc(SCC(N)=O)c(C#N)c1-c1ccc(OCC2CC2)cc1 [BAY 60-6583]
Uptake of phosphate tracer to plasma, % of study vehicle ([1]; dose 10 mg/kg): >75%

COc1ccc2[nH]cc(CCNC(C)=O)c2c1 [Melatonin, N-acetyl-5-methoxytryptamine]
response vs control in vivo at 10 mg/kg [1, 5]: 50 to 75%

O=c1[nH]c(=O)n([C@@H]2O[C@H](COP(=O)(O)OP(=O)(O)OP(=O)(O)O)[C@@H](O)[C@H]2O)cc1I [5-iodo-UTP]
EC50 [3]: 830 nM

N[C@@H]1[C@H](O)[C@@H](COP(=O)(O)OP(=O)(O)OP(=O)(O)O)O[C@H]1n1ccc(=O)[nH]c1=S [2′-amino-2-thio-UTP]
selectivity, P2Y2-selective versus P2Y4 ([3]; P2Y2 versus P2Y4): 300 fold
EC50 [3]: 8 nM

O=c1ccn([C@@H]2O[C@H](COP(=O)(O)OP(=O)(O)OP(=O)(O)OP(=O)(O)OC[C@H]3O[C@@H](n4ccc(=O)[nH]c4=O)[C@H](O)[C@@H]3O)[C@@H](O)[C@H]2O)c(=O)[nH]1 [Up4U]
uptake of phosphate in the gastrointestinal tract of rats [4]: reduces
33P uptake/absorption ([4]; rats, 15 mg/kg): significantly decreased
response vs control in vivo at 5 mg/kg ([1]; Rattus norvegicus, po, 0.25 h, dose 5 mg/kg, read-out: Uptake of phosphate tracer to plasma, % of study vehicle): > 75%
response vs control in vivo at 15 mg/kg ([1]; Rattus norvegicus, po, 0.25 h, dose 15 mg/kg, read-out: Uptake of phosphate tracer to plasma, % of study vehicle): > 75%
response vs control in vivo at 50 mg/kg ([1]; Rattus norvegicus, po, 0.25 h, dose 50 mg/kg, read-out: Uptake of phosphate tracer to plasma, % of study vehicle): > 75%

COCCCN1CCC(NC(=O)c2cc(Cl)c(N)c3c2OCC3)CC1 [Prucalopride, prucalopride]
response vs control in vivo at 10 mg/kg [1, 5]: > 75%

O=C(O)CCCCN(CCc1ccccc1OCc1ccc(CCc2ccccc2)cc1)Cc1ccc(C(=O)O)cc1 [Bay 58-2667]
Uptake of phosphate tracer to plasma, % of study vehicle ([1]; dose 10 mg/kg): 50-75%

CSc1nc(N)c2ncn([C@@H]3O[C@H](COP(=O)(O)OP(=O)(O)O)[C@@H](O)[C@H]3O)c2n1 [2-methylthio-ADP]
Uptake of phosphate tracer to plasma, % of study vehicle ([2]; dose 10 mg/kg): >75%

COc1nc(C)nc(Cl)c1N=C1NCCN1 [Moxonidine, moxonidine]
uptake of phosphate in the gastrointestinal tract of rats [4]: reduce
response vs control in vivo at 2 mg/kg ([1]; Rattus norvegicus, po, 0.25 h, dose 2 mg/kg, read-out: Uptake of phosphate tracer to plasma, % of study vehicle): 50 to 75%
response vs control in vivo at 6 mg/kg ([1]; Rattus norvegicus, po, 0.25 h, dose 6 mg/kg, read-out: Uptake of phosphate tracer to plasma, % of study vehicle): 25 to 50%

Nc1nc(-c2nn(Cc3ccccc3F)c3ncccc23)ncc1C1CC1 [Bay 41-2271]
Uptake of phosphate tracer to plasma, % of study vehicle ([1]; dose 10 mg/kg): >75%

C[C@@H]1NC(=O)[C@@H]2CCCN2C(=O)[C@H](CC(N)=O)NC(=O)[C@@H]2CSSC[C@H](N)C(=O)N[C@H]3CSSC[C@H](NC1=O)C(=O)N[C@@H]([C@@H](C)O)C(=O)NCC(=O)N[C@H](C(=O)N[C@@H](Cc1ccc(O)cc1)C(=O)O)CSSC[C@H](NC(=O)[C@H](Cc1ccc(O)cc1)NC(=O)[C@H](CCC(=O)O)NC3=O)C(=O)N2 [Linaclotide] (H-CCEYCCNPACTGCY-OH; disulfide 1-6, 2-10, 5-13)
uptake of phosphate in the gastrointestinal tract of rats [4]: reduces
absorption of phosphate in the gastrointestinal tract (plasma 33P) ([4]; rats, both doses, 0.1 and 0.3 mg/kg, blood 5-60 min post-33P): decreased
Uptake of phosphate tracer to plasma, % of study vehicle ([1]; dose 0.03 mg/kg): 50-75%
Uptake of phosphate tracer to plasma, % of study vehicle ([1]; dose 0.1 mg/kg): 50-75%
Uptake of phosphate tracer to plasma, % of study vehicle ([1]; dose 0.3 mg/kg): 25-50%

NC[C@@H]1O[C@H](c2ccccc2)Cc2c1ccc(O)c2O [A68930]
Uptake of phosphate tracer to plasma, % of study vehicle ([1]; dose 10 mg/kg): 50-75%

CCCCC(C)(C)[C@H](O)/C=C/[C@H]1[C@H](O)CC(=O)[C@@H]1C/C=C\CCCC(=O)O [16,16-dimethyl-PGE2, 16,16-dimethyl PGE2]
Uptake of phosphate tracer to plasma, % of study vehicle ([1]; dose 3 μg/kg): >75%

C1COC(NC(C2CC2)C2CC2)=N1 [Rilmenidine, rilmenidine]
response vs control in vivo at 3 mg/kg ([1]; Rattus norvegicus, po, 0.25 h, dose 3 mg/kg, read-out: Uptake of phosphate tracer to plasma, % of study vehicle): > 75%

CCOC(=O)C1=C[C@]2(CC)CCCN3CCc4c(n1c1ccccc41)[C@@H]32 [Vinpocetine, vinpocetine]
response vs control in vivo at 1 mg/kg ([1]; Rattus norvegicus, po, 0.25 h, dose 1 mg/kg + 0.03 mg/kg Linacolitde, read-out: Uptake of phosphate tracer to plasma, % of study vehicle): 50 to 75%
response vs control in vivo at 1 mg/kg ([1]; Rattus norvegicus, po, 0.25 h, dose 1 mg/kg, read-out: Uptake of phosphate tracer to plasma, % of study vehicle): > 75%
response vs control in vivo at 10 mg/kg ([1]; Rattus norvegicus, po, 0.25 h, dose 10 mg/kg + 0.03 mg/kg Linacolitde, read-out: Uptake of phosphate tracer to plasma, % of study vehicle): 25 to 50%
response vs control in vivo at 10 mg/kg [1, 5]: > 75%

CCN[C@H]1C[C@H](C)S(=O)(=O)c2sc(S(N)(=O)=O)cc21 [Dorzolamide, dorzolamide]
response vs control in vivo at 20 mg/kg ([1]; Rattus norvegicus, po, 0.25 h, dose 20 mg/kg, read-out: Uptake of phosphate tracer to plasma, % of study vehicle): 50 to 75%

Source: patent US11813304B2, “Compounds and methods for inhibiting phosphate transport” (Ardelyx, Inc., priority 2013, dated 2023)
